In patent US4687773A, “(+)-N-N-propylnorapomorphine and selective limbic activity” (priority 1985, dated 1987):
pIC50: −log10 of the molar value. Structures can show the parent of a compound that is named as a salt. Where two headings read alike, the source gives them in different places.

Assays:
[1] = test system: dopamine (DA) receptors in the basal ganglia (corpus striatum); experiment: Stereotyped licking and gnawing behavior rating in the rat; type: in vivo
Excerpt: Stereotypy: The mean stereotyped licking and gnawing behavioral rating scheme developed by Tarsy and Baldessarini^8 was used. […]
Stereotypy scores were rated for one hour as described in […]

[2] = test system: dopamine (DA) receptors in the limbic system and basal ganglia; experiment: Total motor activity, electronic activity monitor (EAM); type: in vivo, rat
[3] = test system: dopamine (DA) receptors in the limbic system; experiment: Locomotor activity (spontaneous or aroused by (-)APO / (-)NPA), electronic activity monitor; type: in vivo, rat; conditions: for Locomotion: Table 5; for effect on locomotor-arousal activity (in words): with or without (-) isomer, Hydrochloride
[4] = Catalepsy (latency to resume normal posture); type: in vivo, rat; conditions: s.c., maximum 18.0
Experimental: Catalepsy: This measure of muscle rigidity is assessed by having animals in abnormal body positions and timing their duration of maintaining these. This is done by placing rats on a wire grid placed at a 45° angle to the benchtop, or by placing their forelimbs on a raised horizontal metal bar, and timing the latency to resume a normal posture by stopwatch.
All data presented in the Tables below are expressed as the mean results from 4-6 rats per condition, ±S.E.M. Stereotypy is expressed in rating units (maximum=3.0) and activity is expressed in arbitrary units of percent change, derived from EAM counts per unit time, relative to activity in control (saline) animals set at zero.

Dopamine Receptors [5] = type: binding, calf; conditions: ligand [3H]APO (0.5 nM)
Dopamine Receptors [6] = type: binding, calf; conditions: ligand [3H]ADTN (0.5 nM)
[7] = molecular target: T1, rat liver catechol O-methyl-transferase (COMT) (Rattus norvegicus, UniProt P22734); experiment: Isomeric substrate selectivity for rat liver COMT; type: biochemical
T1 construct: partially purified rat liver catechol O-methyl-transferase (COMT); from tissue; host or cells: rat liver, ammonium sulfate precipitation and dialysis
T1 sequence (P22734 1-221 isoform P22734-2): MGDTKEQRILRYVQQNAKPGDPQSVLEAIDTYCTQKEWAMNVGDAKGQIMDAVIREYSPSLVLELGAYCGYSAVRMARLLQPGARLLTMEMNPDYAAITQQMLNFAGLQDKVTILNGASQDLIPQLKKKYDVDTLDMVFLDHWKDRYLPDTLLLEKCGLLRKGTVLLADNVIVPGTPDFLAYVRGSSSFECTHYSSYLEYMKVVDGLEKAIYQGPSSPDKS

[8] = test system: DA in the limbic system (nucleus accumbens septi); experiment: Arousal (locomotor activity) induced by DA injected into nucleus accumbens septi; type: in vivo, rat; conditions: for activity counts (arousal induced by 16 μg DA in accumbens): 30 min, DA control 238 ± 38
Experimental: An experiment shown in Table 9 involves testing the effects of S(+) isomers of apomorphine (APO) and N-propylnorapomorphine (NPA) given systemically (intraperitoneally, ip), as well as S(+) methylenedioxy-N-propylnorapomorphine (MDO-NPA) given ip or orally (po, by orogastric intubation). […]. […] Activity was monitored for 30 min after injection of DA into the brain, which was done at 10 min after systemic dosing with an S(+)aporphine test compound.
Data are mean activity counts ± SEM (N = 6) for rats given DA into the
medial accumbens after pretreatment with an inhibitor of monoamine oxidas
(MA0), and monitored on EAM for 30 min (aporphine given 10 min before DA
systemicallyintraperitoneally [ip] or orally [po].

[9] = test system: DA in the corpus striatum (basal ganglia); experiment: Head posture (contralateral head deviation) after intrastriatal DA; type: in vivo, rat; conditions: intrastriatal DA 16 μg; aporphine 3 mg/kg systemic (route not given)
[10] = Table 5, (+)NPA 3 mg/kg s.c. after (-)NPA 0.3 mg/kg
[11] = Table 5, (+)NPA 3 mg/kg s.c. after (-)NPA 3.0 mg/kg
[12] = Table 5, (+)NPA 3 mg/kg s.c., (-)NPA 0

Structure (SMILES): CCCN1CCc2cccc3c2[C@@H]1Cc1ccc(O)c(O)c1-3 [(+)NPA, (S)-N-n-Propylnorapomorphine Hydrochloride]
- Stereotyped behavior induced by (-)APO, Percent of Control ([1]; (+)NPA 3 mg/kg IP after (-)APO 0.3 mg/kg IP): 100.0 ± 10.6% of Control
- Stereotyped behavior induced by (-)APO, Percent of Control ([1]; (+)NPA 5 mg/kg IP after (-)APO 0.3 mg/kg IP): 100.0 ± 12.3% of Control
- Stereotyped behavior induced by (-)APO, Percent of Control ([1]; (+)NPA 30 mg/kg IP after (-)APO 0.3 mg/kg IP): 102.6 ± 8.9% of Control
- Stereotypy Score ([1]; Table 1, (+)NPA 5 mg/kg s.c. ± (-)APO 3 mg/kg s.c. (printed first: (+)NPA), maximum 3.0): 2.9 ± 0.1 rating units
- Stereotypy Score ([1]; Table 1, (+)NPA 5 mg/kg s.c. ± (-)NPA 3 mg/kg s.c. (printed first: (+)NPA), maximum 3.0): 2.9 ± 0.2 rating units
- Stereotypy Score ([1]; Table 1, (+)NPA 5 mg/kg, s.c., ± saline, maximum 3.0): 0.0 ± 0.0 rating units
- Stereotypy Score ([1]; Table 1, (-)APO 3 mg/kg s.c. ± (+)NPA 5 mg/kg s.c. (printed first: (-)APO), maximum 3.0): 2.9 ± 0.1 rating units
- Stereotypy Score ([1]; Table 1, (-)NPA 3 mg/kg s.c. ± (+)NPA 5 mg/kg s.c. (printed first: (-)NPA), maximum 3.0): 3.0 ± 0.0 rating units
- Stereotypy Score ([1]; Table 3, 0.1 mg/kg, s.c., maximum 3.0): 0 rating units
- Stereotypy Score ([1]; Table 3, 0.3 mg/kg, s.c., maximum 3.0): 0 rating units
- Stereotypy Score ([1]; Table 3, 3.0 mg/kg, s.c., maximum 3.0): 0 rating units
- Stereotypy Score ([1]; Table 3, 5.0 mg/kg, s.c., maximum 3.0): 0 rating units
- Stereotypy Score [1, 10]: 1.7 ± 0.6 rating units
- Stereotypy Score [1, 11]: 2.9 ± 0.8 rating units
- Stereotypy Score [1, 12]: 0 rating units
- stereotyped behavior (in words) ([1]; rat, in vivo): little effect on stereotyped gnawing
- Total Activity ([2]; Table 3, 0.1 mg/kg, s.c.): 3.2 ± 1.1 percent change vs. placebo con
- Total Activity ([2]; Table 3, 0.3 mg/kg, s.c.): -5.2 ± 3.1 percent change vs. placebo con
- Total Activity ([2]; Table 3, 3.0 mg/kg, s.c.): -50.0 ± 18 percent change vs. placebo con
- Total Activity ([2]; Table 3, 5.0 mg/kg, s.c.): -52.1 ± 21 percent change vs. placebo con
- Total Activity [2, 10]: 18.8 ± 2.6 percent change
- Total Activity [2, 11]: 156.7 ± 26 percent change
- Total Activity [2, 12]: 0 percent change
- Locomotion ([3]; (+)NPA 3 mg/kg s.c. after (-)NPA 0.3 mg/kg): 14.8 ± 2.6 percent change
- Locomotion ([3]; (+)NPA 3 mg/kg s.c. after (-)NPA 3.0 mg/kg): 8.5 ± 0.6 percent change
- Locomotion ([3]; (+)NPA 3 mg/kg s.c., (-)NPA 0): 0 percent change
- ID50 to reduce the locomotor activating actions of (-)APO ([3]; s.c., (-)APO 0.3 mg/kg): 0.2 mg/kg
- ID50, spontaneous locomotor arousal ([3]; spontaneous activity): 3 mg/kg
- effect on locomotor-arousal activity (in words) [3]: dose-dependent inhibition of such activity of the R(-) aporphine
- effect on locomotor-arousal activity (in words) ([3]; listed as (+)-N-n-propylnorapomorphine): marked motor-inhibitory effect
- Catalepsy score ([4]; 0.1 mg/kg): 0.6 ± 0.1
- Catalepsy score ([4]; 0.3 mg/kg): 0.4 ± 0.1
- Catalepsy score ([4]; 3.0 mg/kg): 0.6 ± 0.1
- Catalepsy score ([4]; 5.0 mg/kg): 0.6 ± 0.1
- pIC50 (Dopamine Receptors [5]): 7.18
- pIC50 (Dopamine Receptors [6]): 7.22
- Vmax (range of two experiments) ([7]; footnote range): 10.2- 13.2 (pmol/assay)/h
- Vmax ([7]; mean, substrate of rat liver COMT): 11.7 (pmol/assay)/h
- activity counts (arousal induced by 16 μg DA in accumbens) ([8]; 0.3 mg/kg ip): 139 ± 17 activity counts
- activity counts (arousal induced by 16 μg DA in accumbens) ([8]; 1.0 mg/kg ip): 80 ± 11 activity counts
- activity counts (arousal induced by 16 μg DA in accumbens) ([8]; 3.0 mg/kg ip): 54 ± 10 activity counts
- ED50 ([8]; Rattus norvegicus, ip, read-out: ID50, ip, DA 16 μg in accumbens): 0.4 mg/kg
- ID50 ([8]; ip, DA 16 μg in accumbens, hydrochloride): 0.45 mg/kg
- times more potent than (+)APO as inhibitor of DA in the limbic system ([8]; vs (+)APO): 8 times
- Contralateral Head Deviation, Percent of Total [9]: 66.7% of Total
- Contralateral Head Deviation, Time [9]: 480 ± 44 s
